Results: publication PMC9478491, “Therapeutic effects and mechanisms of N-(9,10-anthraquinone-2-ylcarbonyl) xanthine oxidase inhibitors on hyperuricemia” (Frontiers in Pharmacology, 2022)
Several values for one entry are separate records, joined by “and”; a condition that tells them apart may be missing. Identical values can stand only once. Like-named read-outs stand apart in the source and are kept apart here.

Tests used:
rats = tested on: rats; design: method as in Izmerov et al., 1982; conditions: ref Izmerov et al., 1982; cited from earlier work
mice = tested on: mice; design: method as in Izmerov et al., 1982; conditions: ref Izmerov et al., 1982; cited from earlier work
[1] = Pharmacokinetics in rats (HPLC-MS/MS, WinNonlin); type: in vivo, SD rats
Protocol: The volume of intravenous administration was 1 ml/250 g, and the volume of oral administration was 1 ml/100 g. Whole blood was collected at 2, 5, 10, 20, 30, 60, 120, 240, 360, 480, 720, and 1440 min after intravenous administration. The rats’ blood was transferred to the heparinized test tube. The whole blood was centrifuged at 8,000 rpm for 5 min, and the plasma was separated and stored in a refrigerator at -80°C for testing.

patients = tested on: patients; design: method as in Madero et al., 2009; Liu et al., 2016; conditions: patients taking allopurinol; ref Madero et al., 2009; Liu et al., 2016; cited from earlier work
XOD [2] = type: cell-based, mouse; conditions: AML12 cells, allopurinol 100 μmol/L, p < 0.001
XOD [3] = experiment: Western blot, XOD protein in AML12 cells; type: cell-based, mouse; conditions: allopurinol 100 μmol/L, p < 0.01
Protocol: The total protein of HK-2 cells and AML12 cells were extracted with total protein extraction kit, and the concentration was determined by the BCA kit. Electrophoresis, membrane transfer, antibody incubation, and other operations were performed in accordance with the Western blot experiment procedures. The protein bands were quantified by ImageJ software and normalized to individual β-actin expression levels.

AML12 cells = experiment: Culture supernatant UA level of hyperuricemia AML12 cells; type: cell-based, mouse; conditions: allopurinol 100 μmol/L, p < 0.001
Protocol: AML12 cells in logarithmic growth were digested with trypsin, and cell suspension was made by pipette blowing. After counting with a blood counting plate, the cells were diluted to 10^5 cells/mL, and 1 ml of each well was inoculated in a medium dish. The cells were placed in a 5% (V/V) CO2 cell incubator at 37 °C for 24 h. 24 h later, the cell supernatant was discarded, washed with PBS for three times, and the adenosine solution prepared with the current basic medium without fetal bovine serum as the solvent was added. The dosage of adenosine was 1.5 mmol/L, and the cells were placed in the cell culture box for further incubation for 24 h. The culture dish was taken out, 0.005 IU xanthine oxidase (XO) was added to each well, and incubated in the cell incubator for 24 h, and then the hyperuricemia liver cell model was obtained.
AML12 cells were cultured in complete medium at 37 °C and a 5% CO2 cell incubator. Logarithmic growth cells were made into cell suspension with trypsin. The cells were inoculated into 24-well plates at the concentration of 10^5 cells/ml and cultured in a cell incubator at 37°C and 5% CO2 for 24 h. After the cells adhered to the wall, the medium in 24-well plates was discarded and washed with PBS for three times. […] After 24 h, the model and administration groups were washed with PBS for three times. […]

[4] = tested on: TNF-α, IL-6, IL-1β, NLRP3; experiment: TNF-α, IL-6, IL-1β, NLRP3 in HK-2 culture supernatant (ELISA); type: cell-based, human; conditions: HK-2 cells, allopurinol 100 μmol/L, p < 0.01
Text: The culture, induction, and administration of hyperuricemia HK-2 cells were the same as described earlier. Finally, the supernatant of the culture medium was collected to detect the levels of inflammatory factors. ELISA kits were used to detect the supernatant TNF-α, IL-6, IL-1β, and NLRP3 levels of the culture medium.

[5] = tested on: potassium oxonate-induced hyperuricemia mice; experiment: UA, CRE and BUN in serum and urine of hyperuricemia mice; type: in vivo, mouse; conditions: allopurinol 10 mg/kg gavage, 7 days
Protocol: Ninety SPF male KM mice (20 ± 2 g) were maintained in a normally controlled breeding room with standard laboratory food and water for 1 week prior to the experiments. The uricase inhibitor potassium oxonate was used to induce hyperuricemia in mice, according to previous reports ([Chen et al., 2019]).
Potassium oxonate (model drug), NAY (drug to be tested), and allopurinol (positive drug) were dissolved or suspended in double steaming water. The drug dose used is expressed in “mg/kg.” The dose given for each dose is converted based on the body surface area conversion method. […] Except the normal control mice, others were orally administered by 250 mg/kg potassium oxonate once daily for seven consecutive days to induce hyperuricemia. […] After 7 days’ treatment, diets were removed from the cages 12 h before the animals were sacrificed. The blood was allowed to clot for approximately 1 h at room temperature and centrifuged at 3,000 rpm for 10 min to obtain serum. Serum was divided into three portions, one to detect biochemical markers such as UA, one to detect inflammatory factors, and the remaining stored at−20°C as a backup. […]
The levels of serum UA, CRE, and BUN were measured by using the method recommended in the purchase kit. The levels of serum TNF-α, IL-6, and NLRP3 were measured by using the method recommended in the ELISA kits.

HK-2 cells = experiment: Culture supernatant UA level of hyperuricemia HK-2 cells; type: cell-based, human; conditions: allopurinol 100 μmol/L
Protocol: According to the establishment method of HK-2 cells, hyperuricemia model was reported in the literature ([Hou et al., 2019]), and HK-2 cells was cultured in a complete medium in a 5% CO2, 37°C cell incubator. The cells in the logarithmic growth phase were inoculated on a 24-well plate at a concentration of 10^5 cells/ml. The cells were cultured in a 37 °C incubator for 24 h. 24 h later, discard the culture medium, and wash cells by PBS for three times. Add 2.5 mmol/L adenosine solution prepared from the incomplete medium to each well and incubate in the incubator for 24 h. Then 0.005 IU/mg XO solution was added to each well in the 24-well plate, and the supernatant was collected after incubation for 12 h. The absorbance was measured on the microplate reader using the UA kit.
Hk-2 cells were cultured in a 5% CO2 cell incubator at 37 °C in complete medium. The cells in the logarithmic growth phase were inoculated on a 24-well plate at a concentration of 10^5 cells/ml and cultured in a 5% CO2 cell incubator at 37°C for 24 h. After 24 h, the culture medium was discarded and washed with PBS for three times. […] After 24 h, the model and drug administration groups were washed with PBS for three times, and the model and drug administration groups were added with 2.5 mmol/L adenosine solution prepared with incomplete whole medium and incubated in an incubator for 24 h. […]

[6] = tested on: potassium oxonate-induced hyperuricemia mice; experiment: Morphology (HE) of renal and liver tissue in hyperuricemia mice; type: in vivo, mouse; conditions: allopurinol 10 mg/kg
Text: The liver and kidney tissues fixed in paraformaldehyde were dehydrated to be transparent. Then put the transparent tissue block into the melted paraffin, and embed it after the paraffin is completely immersed in the tissue block. Fix the embedded wax block on the microtome and cut it into 5 μm thin slices. The thin slice is ironed in hot water, then pasted on the glass slide, and dried. Before staining, paraffin wax in the sections was removed with xylene, then soaked with high to low concentration alcohol, and finally soaked in distilled water for 2 min. The dewaxed and rehydrated slices were stained in hematoxylin solution for several minutes and then washed with running water. Then put the slices into 1% hydrochloric alcohol (5–10 s) and rinse with tap water, after rinsing, place the slices in distilled water. After 2 min, the slices were removed and dehydrated with […]. After dehydration, the slices were stained with alcohol eosin solution for 2–3 min. After dehydration by alcohol, xylene was used to make the slices transparent. Finally, the transparent slices were dripped with gum and sealed with a cover glass.
Potassium oxonate (model drug), NAY (drug to be tested), and allopurinol (positive drug) were dissolved or suspended in double steaming water. […]

[7] = allopurinol, rats, gavage 50 mg/kg, n = 3
[8] = allopurinol, rats, gavage 50 mg/kg, single animals, 50 mg/kg
[9] = allopurinol, rats, intravenous injection 5 mg/kg, single animals, 5 mg/kg

In the case of `O=C1c2ccccc2C(=O)c2ccccc21` [AQ, 9,10-anthraquinone], the “acute oral toxicity LD50” value (rats) is listed as > 5,000 mg/kg BW and the “acute oral toxicity LD50” value (mice) is listed as > 5,000 mg/kg BW.

Compound `Oc1ncnc2[nH]ncc12` [allopurinol] has an AUC(0-t) ([1]; SD, rat, plasma, iv, 5 mg/kg, allopurinol, rats, intravenous injection 5 mg/kg, n = 3, read-out: AUC (0–t), Average) of 1540 ng·h/mL, an AUC(0-inf) ([1]; SD, rat, plasma, iv, 5 mg/kg, allopurinol, rats, intravenous injection 5 mg/kg, n = 3, read-out: AUC (0–∞), Average) of 1590 ng·h/mL and an MRT inf ([1]; SD, rat, plasma, iv, 5 mg/kg, allopurinol, rats, intravenous injection 5 mg/kg, n = 3, read-out: MRT (0–∞), Average) of 0.27 h. The AUC(0-t) ([1]; SD, rat, plasma, iv, 5 mg/kg, allopurinol, rats, intravenous injection 5 mg/kg, single animals, read-out: AUC (0–t), individual rats 1-3) was 1600 ng·h/mL, the AUC(0-inf) ([1]; SD, rat, plasma, iv, 5 mg/kg, allopurinol, rats, intravenous injection 5 mg/kg, single animals, read-out: AUC (0–∞), individual rats 1-3) was 1650 ng·h/mL and the MRT inf ([1]; SD, rat, plasma, iv, 5 mg/kg, allopurinol, rats, intravenous injection 5 mg/kg, single animals, read-out: MRT (0–∞), individual rats 1-3) was 0.27 h. It also gave an AUC(0-inf) ([1]; SD, rat, plasma, iv, 5 mg/kg, allopurinol, rats, intravenous injection 5 mg/kg, read-out: AUC0-∞) of 1590 ± 139 ng·h/mL, a concentration at 2 min ([1]; SD, rat, plasma, iv, 5 mg/kg, read-out: C2min (drug concentration in plasma)) of 5280 ± 686 ng/mL and a k el ([1]; SD, rat, plasma, iv, 5 mg/kg, read-out: elimination rate constant K (converted)) of 0.000964 s⁻¹. It also gave a bioavailability ([1]; SD, rat, plasma, oral, 50 mg/kg, read-out: F) of 158%, an AUC(0-t) ([1]; SD, rat, plasma, po, 50 mg/kg, allopurinol, rats, gavage 50 mg/kg, n = 3, read-out: AUC (0–t), Average) of 24500 ng·h/mL and an AUC(0-inf) ([1]; SD, rat, plasma, po, 50 mg/kg, allopurinol, rats, gavage 50 mg/kg, n = 3, read-out: AUC (0–∞), Average) of 25100 ng·h/mL. For the same compound, the Cmax ([1]; SD, rat, plasma, po, 50 mg/kg, allopurinol, rats, gavage 50 mg/kg, n = 3, read-out: Cmax, Average) was 6610 ng/mL, the MRT inf ([1]; SD, rat, plasma, po, 50 mg/kg, allopurinol, rats, gavage 50 mg/kg, n = 3, read-out: MRT (0–∞), Average) was 2.36 h and the AUC(0-t) ([1]; SD, rat, plasma, po, 50 mg/kg, allopurinol, rats, gavage 50 mg/kg, single animals, read-out: AUC (0–t), individual rats 1-3) was 27500 ng·h/mL. The AUC(0-inf) ([1]; SD, rat, plasma, po, 50 mg/kg, allopurinol, rats, gavage 50 mg/kg, single animals, read-out: AUC (0–∞), individual rats 1-3) was 28700 ng·h/mL, the Cmax ([1]; SD, rat, plasma, po, 50 mg/kg, allopurinol, rats, gavage 50 mg/kg, single animals, read-out: Cmax, individual rats 1-3) was 6100 ng/mL and the MRT inf ([1]; SD, rat, plasma, po, 50 mg/kg, allopurinol, rats, gavage 50 mg/kg, single animals, read-out: MRT (0–∞), individual rats 1-3) was 2.88 h. For the same compound, the Tmax ([1]; SD, rat, plasma, po, 50 mg/kg, read-out: Tmax, individual rats 1-3) was 1 h, the bioavailability ([1]; SD, rat, plasma, po, 50 mg/kg, read-out: calculated bioavailability) was 158% and the “Tmax, Average” value [1, 7] was 1.00 h. The “V/F, Average” value [1, 7] was 3.18 L/kg, the “Tmax, individual rats 1-3” value ([1]; allopurinol, rats, gavage 50 mg/kg, single animals) was 1.00 h and the “AUC (0–t), individual rats 1-3” value [1, 8] was 19.62363 µg·h/mL and 26.46291 µg·h/mL. For the same compound, the “AUC (0–∞), individual rats 1-3” value [1, 8] was 20.02934 µg·h/mL and 26.66672 µg·h/mL, the “Cmax, individual rats 1-3” value [1, 8] was 5,968.97 ug/L and 7742.83 ug/L and the “MRT (0–∞), individual rats 1-3” value [1, 8] was 1.84 h and 2.35 h. The “V/F, individual rats 1-3” value [1, 8] was 3.19 L/kg and 3.81 L/kg and 2.53 L/kg, the “V, Average” value ([1]; allopurinol, rats, intravenous injection 5 mg/kg, n = 3) was 0.92 L/kg and the “AUC (0–t), individual rats 1-3” value [1, 9] was 1.38323 µg·h/mL and 1.6486 µg·h/mL. The “AUC (0–∞), individual rats 1-3” value [1, 9] was 1.43209 µg·h/mL and 1.68742 µg·h/mL, the “MRT (0–∞), individual rats 1-3” value [1, 9] was 0.29 h and the “V, individual rats 1-3” value [1, 9] was 0.91 L/kg and 1.05 L/kg and 0.81 L/kg. The “patients who can reduce serum UA concentration to the target level” value (patients) was “less than 40%”, the “XOD activity vs model group” value (XOD [2]) was “effect of the allopurinol group on reducing XOD viability and the level of supernatant UA were obvious” and the “XOD protein expression vs model group” value (XOD [3]) was “significantly reduced”. The “supernatant UA level vs model group” value (AML12 cells) was “effect of the allopurinol group on reducing XOD viability and the level of supernatant UA were obvious”, the “IL-6 level in medium supernatant” value [4] was “could reduce the IL-6 level” and the “TNF-α level in medium supernatant” value [4] was “significantly reduced the TNF-α level”. The “serum UA, CRE and BUN levels vs model group” value [5] was “obviously decreased the aforementioned indexes”, the “UA levels in hyperuricemia cell model” value (HK-2 cells) was “could reduce UA levels” and the “liver tissue morphology (HE)” value [6] was “many inflammatory cell infiltrates with a small number of hepatocyte necrosis”. The “renal tissue morphology (HE)” value [6] was “Renal cortical inflammatory cell infiltration and marked tubular luminal expansion”.
